Measurements as given in patent publication US5576305A, “Intercellular adhesion mediators” (Cytel Corporation, priority 1995, dated 1996).

Tests used:
selectin = test: inhibitory effect of oligosaccharides on selectin-mediated adhesion; type: cell-based; settings: in words
recombinant E-selectin = test: inhibition of binding of HL-60 cells to recombinant E-selectin; type: cell-based; settings: FIG. 13, concentration dependence, in words
rolling leukocytes = test: leukocyte rolling (histamine-induced recruitment of rolling leukocytes); type: in vivo, rat; settings: FIG. 15, in words

Molecule | inhibitory effect relative to the tetrasaccharide (selectin) | inhibition of binding of HL-60 cells to recombinant E-selectin (recombinant E-selectin) | recruitment of rolling leukocytes / leukocyte rolling (rolling leukocytes)
NeuAcα2,3Galβ1,4(Fucα1,3)GlcNAcβ1,3Galβ-- | substantially more inhibitory effect than the tetrasaccharide |  | 
CCOC1OC(CO)C(O)C(OC2OC(CO)C(OC3OC(CO)C(O)C(OC4(C(=O)O)CC(O)C(NC(C)=O)C(C(O)C(O)CO)O4)C3O)C(OC3OC(C)C(O)C(O)C3O)C2NC(C)=O)C1O [Z, Ethyl (sodium (5-acetamido-3,5-dideoxy-α-D-glycero-D-galacto-2-nonulopyanosylonate))-(2-3)-O-(β-D-galactopyranosyl)-(1-4)-O-((α-L-fucopyranosyl)-(1-3))-O-(2-acetamido-2-deoxy-β-D-glucopyranosyl)-(1-3)-O-β-D-galactopyranoside] |  | inhibition of binding of HL-60 cells to recombinant E-selectin in a concentration dependent manner | inhibited leukocyte rolling
CCO[C@@H]1O[C@H](CO)[C@H](O)[C@H](O[C@@H]2O[C@H](CO)[C@@H](O[C@@H]3O[C@H](CO)[C@H](O)[C@H](O[C@]4(C(=O)O)C[C@H](O)[C@@H](NC(C)=O)[C@H]([C@H](O)[C@H](O)CO)O4)[C@H]3O)[C@H](O)[C@H]2NC(C)=O)[C@H]1O [SLN, reference compound] |  |  | had no effect
